In PubChem BioAssay (NCI):
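Compound exposure: 48 hours, 5 concentrations, 96-well plates. Abbreviation: GI50, concentration required for 50% inhibition of growth. TGI: total growth inhibition.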

Legend:
Assay in all cases: NCI-60 cell line screen, 48 h
HT29 colon = tested on: HT29 colon
NCI-H226 lung = tested on: NCI-H226 lung
SNB-19 CNS = tested on: SNB-19 CNS
K-562 leukemia = tested on: K-562 leukemia
NCI-H522 lung = tested on: NCI-H522 lung
PC-3 prostate = tested on: PC-3 prostate
SN12C renal = tested on: SN12C renal
TK-10 renal = tested on: TK-10 renal
MDA-MB-231 breast = tested on: MDA-MB-231 breast
COLO 205 colon = tested on: COLO 205 colon
HOP-92 NSCLC = tested on: HOP-92 NSCLC
OVCAR-8 ovarian = tested on: OVCAR-8 ovarian
ACHN renal = tested on: ACHN renal
RPMI-8226 leukemia = tested on: RPMI-8226 leukemia
U251 CNS = tested on: U251 CNS
SF-539 CNS = tested on: SF-539 CNS
MCF7 breast = tested on: MCF7 breast
BT-549 breast = tested on: BT-549 breast
786-0 renal = tested on: 786-0 renal
UACC-257 melanoma = tested on: UACC-257 melanoma
SK-MEL-28 melanoma = tested on: SK-MEL-28 melanoma
T-47D breast = tested on: T-47D breast
SF-268 CNS = tested on: SF-268 CNS
LOX IMVI melanoma = tested on: LOX IMVI melanoma
SW-620 colon = tested on: SW-620 colon
A549 NSCLC = tested on: A549 NSCLC
CAKI-1 renal = tested on: CAKI-1 renal
SK-MEL-2 melanoma = tested on: SK-MEL-2 melanoma
KM12 colon = tested on: KM12 colon
UACC-62 melanoma = tested on: UACC-62 melanoma
NCI-H23 lung = tested on: NCI-H23 lung
IGROV1 ovarian = tested on: IGROV1 ovarian
EKVX NSCLC = tested on: EKVX NSCLC
SK-OV-3 ovarian = tested on: SK-OV-3 ovarian
DU-145 prostate = tested on: DU-145 prostate
A498 renal = tested on: A498 renal
SNB-75 CNS = tested on: SNB-75 CNS
SF-295 CNS = tested on: SF-295 CNS
SR leukemia = tested on: SR leukemia
MALME-3M melanoma = tested on: MALME-3M melanoma
CCRF-CEM leukemia = tested on: CCRF-CEM leukemia
MOLT-4 leukemia = tested on: MOLT-4 leukemia
HCC-2998 colon = tested on: HCC-2998 colon
HCT-15 colon = tested on: HCT-15 colon
SK-MEL-5 melanoma = tested on: SK-MEL-5 melanoma
MDA-MB-435 = tested on: MDA-MB-435
HS 578T breast = tested on: HS 578T breast
HL-60(TB) leukemia = tested on: HL-60(TB) leukemia
OVCAR-5 ovarian = tested on: OVCAR-5 ovarian
HOP-62 NSCLC = tested on: HOP-62 NSCLC
M14 melanoma = tested on: M14 melanoma

In the case of `CSc1nn2c(-c3ccc4ccccc4c3)ccnc2c1C#N`, the GI50 (HT29 colon) is reported as 454 nM, the TGI (HT29 colon) is reported as > 100 µM and the GI50 (NCI-H226 lung) is reported as 2810 nM. For the same molecule, the TGI (NCI-H226 lung) was > 100 µM, the GI50 (SNB-19 CNS) was 1220 nM and the TGI (SNB-19 CNS) was > 100 µM. The GI50 (K-562 leukemia) was 306 nM, the TGI (K-562 leukemia) was > 100 µM and the GI50 (NCI-H522 lung) was 442 nM. For the same molecule, the TGI (NCI-H522 lung) was > 100 µM, the GI50 (PC-3 prostate) was 2980 nM and the TGI (PC-3 prostate) was > 100 µM. The GI50 (SN12C renal) was 857 nM, the TGI (SN12C renal) was > 100 µM and the GI50 (TK-10 renal) was 5.09 µM. For the same molecule, the TGI (TK-10 renal) was > 100 µM, the GI50 (MDA-MB-231 breast) was 1110 nM and the TGI (MDA-MB-231 breast) was 5.88 µM. The GI50 (COLO 205 colon) was 727 nM, the TGI (COLO 205 colon) was > 100 µM and the GI50 (HOP-92 NSCLC) was 1710 nM. The TGI (HOP-92 NSCLC) was 6.55 µM, the GI50 (OVCAR-8 ovarian) was 944 nM and the TGI (OVCAR-8 ovarian) was > 100 µM. For the same molecule, the GI50 (ACHN renal) was 1140 nM, the TGI (ACHN renal) was > 100 µM and the GI50 (RPMI-8226 leukemia) was 599 nM. For the same molecule, the TGI (RPMI-8226 leukemia) was > 100 µM, the GI50 (U251 CNS) was 989 nM and the TGI (U251 CNS) was > 100 µM. It also gave a GI50 (SF-539 CNS) of 1300 nM, a TGI (SF-539 CNS) of 64.8 µM and a GI50 (MCF7 breast) of 1300 nM. For the same molecule, the TGI (MCF7 breast) was > 100 µM, the GI50 (BT-549 breast) was 2290 nM and the TGI (BT-549 breast) was > 100 µM. For the same molecule, the GI50 (786-0 renal) was 2110 nM, the TGI (786-0 renal) was > 100 µM and the GI50 (UACC-257 melanoma) was 6.93 µM. For the same molecule, the TGI (UACC-257 melanoma) was > 100 µM, the GI50 (SK-MEL-28 melanoma) was 1160 nM and the TGI (SK-MEL-28 melanoma) was > 100 µM. For the same molecule, the GI50 (T-47D breast) was 4.05 µM, the TGI (T-47D breast) was > 100 µM and the GI50 (SF-268 CNS) was 1290 nM. The TGI (SF-268 CNS) was > 100 µM, the GI50 (LOX IMVI melanoma) was 754 nM and the TGI (LOX IMVI melanoma) was > 100 µM. The GI50 (SW-620 colon) was 428 nM, the TGI (SW-620 colon) was > 100 µM and the GI50 (A549 NSCLC) was 828 nM. For the same molecule, the TGI (A549 NSCLC) was > 100 µM, the GI50 (CAKI-1 renal) was 550 nM and the TGI (CAKI-1 renal) was > 100 µM. For the same molecule, the GI50 (SK-MEL-2 melanoma) was 874 nM, the TGI (SK-MEL-2 melanoma) was > 100 µM and the GI50 (KM12 colon) was 490 nM. The TGI (KM12 colon) was > 100 µM, the GI50 (UACC-62 melanoma) was 439 nM and the TGI (UACC-62 melanoma) was 6.51 µM. For the same molecule, the GI50 (NCI-H23 lung) was 2040 nM, the TGI (NCI-H23 lung) was > 100 µM and the GI50 (IGROV1 ovarian) was 763 nM. The TGI (IGROV1 ovarian) was > 100 µM, the GI50 (EKVX NSCLC) was 3.04 µM and the TGI (EKVX NSCLC) was > 100 µM. For the same molecule, the GI50 (SK-OV-3 ovarian) was 2200 nM, the TGI (SK-OV-3 ovarian) was > 100 µM and the GI50 (DU-145 prostate) was 6.99 µM. The TGI (DU-145 prostate) was > 100 µM, the GI50 (A498 renal) was 176 nM and the TGI (A498 renal) was 897 nM. For the same molecule, the GI50 (SNB-75 CNS) was 197 nM, the TGI (SNB-75 CNS) was 1510 nM and the GI50 (SF-295 CNS) was 1780 nM. The TGI (SF-295 CNS) was > 100 µM, the GI50 (SR leukemia) was 343 nM and the TGI (SR leukemia) was > 100 µM. For the same molecule, the GI50 (MALME-3M melanoma) was 663 nM, the TGI (MALME-3M melanoma) was 44.5 µM and the GI50 (CCRF-CEM leukemia) was 7.51 µM. The TGI (CCRF-CEM leukemia) was > 100 µM, the GI50 (MOLT-4 leukemia) was 668 nM and the TGI (MOLT-4 leukemia) was > 100 µM. The GI50 (HCC-2998 colon) was 6.02 µM, the TGI (HCC-2998 colon) was > 100 µM and the GI50 (HCT-15 colon) was 390 nM. For the same molecule, the TGI (HCT-15 colon) was > 100 µM, the GI50 (SK-MEL-5 melanoma) was 693 nM and the TGI (SK-MEL-5 melanoma) was > 100 µM. For the same molecule, the GI50 (MDA-MB-435) was 229 nM, the TGI (MDA-MB-435) was 641 nM and the GI50 (HS 578T breast) was 1050 nM. For the same molecule, the TGI (HS 578T breast) was > 100 µM, the GI50 (HL-60(TB) leukemia) was 668 nM and the TGI (HL-60(TB) leukemia) was > 100 µM. The GI50 (OVCAR-5 ovarian) was 5.14 µM, the TGI (OVCAR-5 ovarian) was > 100 µM and the GI50 (HOP-62 NSCLC) was 1090 nM. The TGI (HOP-62 NSCLC) was > 100 µM, the GI50 (M14 melanoma) was 390 nM and the TGI (M14 melanoma) was 27.4 µM.
